≈ marks a conversion by molar mass, not a printed value.
Legend:
[1] = tested on: P388; assay: Cytotoxicity against mouse P388 cells; conditions: P388, read-out: ED50
[2] = tested on: KB; assay: Cytotoxicity against human KB cells; conditions: read-out: ED50

**Q.** Which EC50 [1] does the source give for `Oc1ccc(O)cc1` [HYDROQUINONE] here?
**A.** Its EC50 is 2.2 µg/mL (≈ 20 µM).

**Q.** What about the EC50 [2] of the same molecule?
**A.** Its EC50 is 3.8 µg/mL (≈ 34.5 µM).
